Results on one compound are retold here after US8071645B2, “Systems and methods for treating human inflammatory and proliferative diseases and wounds, with fatty acid metabolism inhibitors and/or glycolytic inhibitors” (The Regents of the University of Colorado, priority 2003, dated 2011).

For one test, the system named is HL60 MDR cells. Nature of the test: % death of HL60 MDR cells by flow cytometry. The settings on record: HL60 MDR. The format is cell-based, human. The method, then:
Dot plots as a function of live versus dead cells. The cells were cultured at a concentration of 0.5 to 1 million cells per ml. Cells were untreated or treated with etomoxir or 2-deoxy-D-glucose at a concentration of 2.5 mM at the indicated concentrations for either 24 or 48 hours. In additional experiments, under each of these culture conditions, the cells were cultured for 24 hours at which time point, polyclonal anti-UCP-2 was added at a 1:1000 dilution of stock provided by Alpha Diagnostics, San Antonio, Tex. Cells were harvested and analyzed by flow cytometry. Each dot on the dot plots of FIGS. 1, 3, 5, 7, 9, and 11 represents one cell. Five thousand cells were assessed for forward scatter (FS), as a function of cell size, versus side scatter (SS), as a function of cellular granularity. The upper ellipse represents live cells by these criterion and the lower ellipse in each dot plot represents the dead cells.
Statistical Analysis, Percents, and Geometric Mean Values Percents. Gating is a tool provided by Cell Quest software and allows for the analysis of a certain population of cells. Gating around both the live and dead cell populations gave a percent of the cell numbers that was in each population. After the gates were drawn, a percent value of dead cells was calculated by taking the number of dead cells divided by the number of total cells and multiplying by one hundred.
This example illustrates an embodiment of the invention, where multi-drug resistant cancer cells were exposed to compositions of the invention. Analysis of the cells was performed using flow cytometry. The flow cytometry experiments were performed as follows. The cells were harvested, counted, and resuspended as described above. For DNA staining, the cells were washed and resuspended in ice-cold PBS and fixed by the dropwise addition of 95% ethanol. The cells were then incubated for 30 minutes on ice, washed, and resuspended in PBS containing 1% formaldehyde and 0.01% Tween. The cells were incubated with 50 units of DNAse and washed with PBS containing 5% DNAse. The cells were then incubated with anti DNA Fab (166, kind gift of Dr. Susan Wallace, University of Vermont), then washed and stained with a fluorescein conjugated second step anti-mouse immunoglobulin. The cells were then washed and resuspended in PBS/3% BSA/1% formaldehyde. The cells were stained for intracellular H2O2 using 6-carboxy-2′,7′-dichlorodihydrofluorescein diacetate (DCF-DA, Molecular Probes, Eugene, Oreg.). The cells were incubated with 1 mM DCF-DA for 20 minutes, washed twice in PBS containing 5% fetal calf serum and analyzed using flow cytometry. The mitochondrial membrane potential was assessed using MitoTracker Red (CM-H2XROS, Molecular Probes, Eugene, Oreg.). The cells were resuspended in warm (37° C.) PBS containing a final concentration of 0.5 micromolar of dye. The cells were then incubated for 30 minutes, pelleted, and resuspended in prewarmed medium for analysis. The data was acquired on a Coulter Elite Epics or Excel flow cytometer (Coulter, Hialeah, Fla.) and analyzed with CellQuest software, (Becton Dickinson, San Jose, Calif.). […] Each sample population was classified for cell size (forward scatter) and complexity (side scatter), gated on a population of interest and evaluated using 40,000 cells. Each figure describing flow cytometric data represents one of at least four replicate experiments.
All cell lines in this example were cultured in RPMI 1640 culture medium. The medium was supplemented with 5% fetal bovine serum (“FBS”), 2 mM L-Glutamine, 500 units/mL pennicillin/500 micrograms/mL of streptomycin, 10 mM HEPES Buffer, 10^−5 M 2-mercaptoethanol (“2-ME”), 1 mM MEM Sodium Pyruvate, and 0.04 micrograms/mL of Gentamicin (All reagents from Gibco BRL). The cells were maintained at 37° C. in a humidified atmosphere under 5% CO2 in air using standard cell culture techniques known to those of ordinary skill in the art. […]
For orientation: Flow cytometry measures light scatter and fluorescence of single cells or particles in a stream.

The subject of test [1] is cell surface Fas (CD95) on B16F1 melanoma cells. Nature of the test: cell surface Fas (CD95) expression on B16F1 melanoma cells. It counts as cell-based. To be noted: 48 hours. The procedure: Cell Surface Staining. Non-permeabilized cells were stained with antibodies to the cell surface receptors Fas (CD95) (Pharmingen) or with antibodies to uncoupling proteins (anti-UCP2 antibody) (Alpha Diagnostic International). Antibodies for both the isotype control and actual stain were added to the cell suspension, mixed, and then placed on ice for and incubation of 25 minutes in the dark. Subsequently the cells were centrifuged at 300×g for 5 minutes and the supernatant removed. The cells were washed one time with 100 μL of PBS/2.5% FBS and then transferred into flow cytometric tubes containing 500 μL of PBS/2.5% FBS for analysis.
B16F1 melanoma cells were cultured at a concentration of 0.5 to 1 million cells per ml. Cells were harvested and analyzed by flow cytometry. Dot plots are shown in FIG. 15 as functions of live versus dead cells. Each dot on the dot plot represents one cell. Five thousand cells were assessed for forward scatter (FS), as a function of cell size, versus side scatter (SS), as a function of cellular granularity. […]
Referring to FIGS. 17 and 18, B16F1 melanoma cells of Example 12 were untreated or treated with etomoxir at the indicated concentrations for 48 hours. Cells were harvested, stained with fluorochrome conjugated anti-Fas antibody (Pharmingen) and analyzed by flow cytometry.

For a further test, the system named is B16F1 melanoma cells. Nature of the test: DCFDA staining (reactive oxygen species) of B16F1 melanoma cells. It counts as cell-based. The settings on record: 48 hours, FIG. 19. The procedure: Metabolic Activity Assay. Cells were prepared as previously described. The specific metabolic dye was added and mixed into the cell suspension. This plate was then placed into the 37° incubator for a 20-minute incubation. After incubation, the cells were centrifuged at 300×g for 5 minutes, and the supernatant was removed. The cells were then washed once with PBS/2.5% FBS and transferred into flow cytometric tubes containing 500 μL of PBS/2.5% FBS for analysis
5-(and -6)-Chloromethyl-2′,7′-dichlorodihydrofluorescein diacetate (CMH2DCFDA) (Molecular Probes). One vial of DCFda provides 10 tests and contains 50 μg. This is unstable and can't be stored. Therefore, each vial was opened and 43 μL of DMSO was added. […]
Geometric Mean Fluorescence. […] Once the stained sample was plotted against the control (isotype or unstained), geometric mean fluorescence values were obtained for both histogram peaks. The stained control sample value was subtracted from sample to identify the actual fluorescence of the stained sample over that of the control.
B16F1 melanoma cells of Example 12 were untreated or treated with etomoxir at the indicated concentrations for 48 hours. Cells were harvested, stained with DCFDA as described in Materials and Methods, and analyzed by flow cytometry. The value of DCFDA was then calculated as described in Materials and Methods.

For `CCOC(=O)C1(CCCCCCOc2ccc(Cl)cc2)CO1` (centres unmarked) [etomoxir, 2-(6-(4-chlorophenoxy)-hexyl)-oxirane-2-carboxylic acid ethyl ester], the “percent of cell deaths” value in the test on HL60 MDR cells (24 hours, 2-deoxy-D-glucose at 2.5 mM, etomoxir as in FIG. 27) worked out at 11%; in the test with HL60 MDR cells (48 hours, concentrations as in FIG. 31), 14%. Moreover, in test [1] (FIG. 17), the “cell surface Fas expression, live cell population” value was “dose dependent increase”. In addition, the “cell surface Fas expression, dead cell population” value in test [1] (FIG. 18) is recorded as “dose dependent increase”. Also, the “reactive oxygen species as measured by DCFDA” value with B16F1 melanoma cells is given as “dose dependent increase”.
